Laboratory results reported in US10213451B2, “Methods and compounds for modulating the secretion or expression of adhesion proteins or angiopoietins of cells” (PACIFIC ARROW LIMITED, priority 2004, dated 2019).
Values after ≈ are worked out from the molar mass of the structure shown.

Test system: ES2(ovarian) cells
Assay: MTT assay ES2
Format: cell-based, human
Description: MTT Assay. The procedure for MTT assay followed the method described by Carmichael et al. (1987) with modifications. The cells were seeded into a 96-well plate at concentration of 10,000/well for HTB-9, HeLa, H460, HCT116, T98G and OVCAR-3), 15,000/well for DU145, MCF-7, HepG2 and U2OS), and 40,000/well for K562 for 24 hours before drug-treatment. The cells were then exposed to the drugs for 48 hours (72 hours for HepG2 and U2OS, and 96 hours for MCF-7). After the drug-treatment, MTT (0.5 mg/mL) was added to cultures and incubated for an hour. The formazan (product of the reduction of tetrazolium by viable cells) formed and was dissolved with DMSO and the O.D. at 490 nm, and was measured by an ELISA reader. The MTT level of the cells before drug-treatment was also measured (T0). The % cell-growth (% G) is calculated as: % G=(TD−T0/TC−T0)×100(1), where TC or TD represents O.D. readings of control or drug-treated cells. When T0>TD, then the cytotoxicity (LC) expressed as % of the control is calculated as: % LC=(TD−T0/T0)×100(2).
Methods: ES2 cells were exposed to (i) Xanifolia-Y with concentrations of 40, 20, 10, 5, 2.5, and 1.25 ug/ml; or (ii) Paclitaxel with concentrations of […]; or (iii) Combined Xanifolia-Y and Paclitaxel with concentrations of each drug in same order (for example, 40 ug/ml Y plus 10 ng/ml T; 20 ug/ml Y plus 5 ng/ml T, etc. please see FIG. 28). Cells growth under these conditions was determined by the MTT assay.
Drug-treatment: cells cultures were replaced with fresh RPMI medium containing Xanifolia-Y (10 ug/ml final concentration) or DMSO (as control) at 0 hour. At 2, and 18 hour, aliquot of culture medium was taken out for Fibronectin determination (Western blot method). Cell viability at 18 hours was determined by MTT assay. Cultures were replaced with RPMI medium with MTT and incubated for an hour. The formation of formazan was dissolved in DMSO and OD at 570 nm was measured.

Row | Structure (SMILES) | IC50 (ES2 cells) [µg/mL] | IC50 (Homo sapiens, ES-2) [µg/mL]
1 | C/C=C(/C)C(=O)O[C@H]1[C@H](OC(C)=O)C(C)(C)CC2C3=CCC4[C@@]5(C)CC[C@H](O)C(C)(C)C5CC[C@@]4(C)[C@]3(C)C[C@@H](O)[C@]21CO (stereo partly shown) [ACH-X] | 40 (≈ 65.1 µM) | 
2 | C/C=C(/C)C(=O)O[C@H]1[C@H](OC(=O)C(C)C)[C@@]2(CO)C(CC1(C)C)C1=CCC3[C@@]4(C)CC[C@H](O)C(C)(C)C4CC[C@@]3(C)[C@]1(C)[C@@H](O)[C@H]2O (stereo partly shown) [ACH-Y0] | 20 (≈ 30.4 µM) | 
3 | CC=C(C)C(=O)OC1C(OC(=O)C(C)=CC)C2(CO)C(CC1(C)C)C1=CCC3C4(C)CCC(O)C(C)(CO)C4CCC3(C)C1(C)C(O)C2O (stereo not shown) [ACH-Y2] | 35 (≈ 51 µM) | 
4 | C/C=C(/C)C(=O)O[C@H]1[C@H](O)[C@@]2(COC(=O)C(C)CC)C(CC1(C)C)C1=CCC3[C@@]4(C)CC[C@H](O)C(C)(C)C4CC[C@@]3(C)[C@]1(C)[C@@H](O)[C@H]2O (stereo partly shown) [ACH-Y7] | 65 (≈ 96.6 µM) | 
5 | CC=C(C)C(=O)OC1C(OC(=O)C(C)=CC)C2(CO)C(O)CC3(C)C(=CCC4C5(C)CCC(O)C(C)(CO)C5CCC43C)C2CC1(C)C (stereo not shown) [ACH-Y8] | 35 (≈ 52.2 µM) | 
6 | C/C=C(/C)C(=O)O[C@H]1[C@H](OC(=O)/C(C)=C\C)[C@@]2(CO)C(CC1(C)C)C1=CCC3[C@@]4(C)CC[C@H](O)C(C)(C)C4CC[C@@]3(C)[C@]1(C)C[C@H]2O (stereo partly shown) [ACH-Y10] | 20 (≈ 30.5 µM) | 
7 | C/C=C(/C)C(=O)O[C@H]1[C@H](OC(=O)c2ccccc2)[C@@]2(CO)C(CC1(C)C)C1=CCC3[C@@]4(C)CC[C@H](O)C(C)(C)C4CC[C@@]3(C)[C@]1(C)[C@@H](O)[C@H]2O (stereo partly shown) [ACH-Z4] | 40 (≈ 57.7 µM) | 
8 | CC=C(C)C(=O)OC1C(OC(=O)c2ccccc2)C(C)(C)CC2C3=CCC4C5(C)CCC(OC6OC(C(=O)O)C(O)C(OC7OCC(O)C(O)C7O)C6OC6OC(CO)C(O)C(O)C6O)C(C)(C)C5CCC4(C)C3(C)CC(O)C21CO [Ba3, 3-O-[β-D-galactopyranosyl(1→2)]-β-D-xylopyranosyl (1→3)-β-D-glucuronopyranosyl-21-O-benzoyl, 22-O-angeloyl-3β, 15α, 21β, 22α, 28-pentahydroxyolean-12-ene] | 8 (≈ 6.97 µM) | 
9 | CC1(C)CC2C3=CCC4C5(C)CCC(OC6OC(C(=O)O)C(O)C(OC7OCC(O)C(O)C7O)C6OC6OC(CO)C(O)C(O)C6O)C(C)(C)C5CCC4(C)C3(C)CC(O)C2(CO)C(OC(=O)c2ccccc2)C1OC(=O)c1ccccc1 [Ba5, 3-O-[β-D-galactopyranosyl(1→2)]-β-D-xylopyranosyl (1→3)-β-D-glucuronopyranosyl-21-O-benzoyl, 22-O-benzoyl-3β, 15α, 21β, 22α, 28-pentahydroxyolean-12-ene] | 16 (≈ 13.7 µM) | 
10 | CC(C)C(=O)OC1C(OC(=O)c2ccccc2)C(C)(C)CC2C3=CCC4C5(C)CCC(OC6OC(C(=O)O)C(O)C(OC7OCC(O)C(O)C7O)C6OC6OC(CO)C(O)C(O)C6O)C(C)(C)C5CCC4(C)C3(C)CC(O)C21CO [Ba7, 3-O-[β-D-galactopyranosyl(1→2)]-β-D-xylopyranosyl (1→3)-β-D-glucuronopyranosyl-21-O-benzoyl, 22-O-isobutyryl-3β, 15α, 21β, 22α, 28-pentahydroxyolean-12-ene] | 11 (≈ 9.69 µM) | 
11 | CC1(C)CC2C3=CCC4C5(C)CCC(OC6OC(C(=O)O)C(O)C(OC7OCC(O)C(O)C7O)C6OC6OC(CO)C(O)C(O)C6O)C(C)(C)C5CCC4(C)C3(C)CC(O)C2(CO)C(O)C1OC(=O)c1ccccc1 [Ba8, 3-O-[β-D-galactopyranosyl(1→2)]-β-D-xylopyranosyl (1→3)-β-D-glucuronopyranosyl-21-O-benzoyl-3β, 15α, 21β, 22α, 28-pentahydroxyolean-12-ene] | 20 (≈ 18.8 µM) | 
12 | CC1(C)CC2C3=CCC4C5(C)CCC(OC6OC(C(=O)O)C(O)C(OC7OCC(O)C(O)C7O)C6OC6OC(CO)C(O)C(O)C6O)C(C)(C)C5CCC4(C)C3(C)CC(O)C2(CO)C(O)C1OC1OCC(OC(=O)c2ccccc2)C(OC(=O)c2ccccc2)C1O [Ba9, 3-O-[β-D-galactopyranosyl(1→2)]-β-D-xylopyranosyl (1→3)-β-D-glucuronopyranosyl-21-O-[3,4-dibenzoyl-β-D-xylopyranosyl]-3β, 15α, 21β, 22α, 28-pentahydroxyolean-12-ene] | 12 (≈ 9.22 µM) | 
13 | CC=C(C)C(=O)OC1C(OC(=O)C=Cc2ccccc2)C23C(O)CC4(C)C5(C)CCC6C(C)(C)C(OC7OC(C(=O)O)C(O)C(OC8OC(CO)C(O)C(O)C8OC8OC(C)C(O)C(O)C8OC8OC(C)C(O)C(O)C8O)C7OC7OC(CO)C(O)C(O)C7O)CCC6(C)C5CCC4(OC2O)C3CC1(C)C (stereo not shown) [Mb1] | 8 (≈ 5.29 µM) | 
14 | CC1OC(OC2C(OC3C(OC4C(O)C(C(=O)O)OC(OC5CCC6(C)C(CCC7(C)C6CCC68OC(O)C9(C(O)CC76C)C(OC(=O)C=Cc6ccccc6)C(OC(=O)c6ccccc6)C(C)(C)CC98)C5(C)C)C4OC4OC(CO)C(O)C(O)C4O)OC(CO)C(O)C3O)OC(C)C(O)C2O)C(O)C(O)C1O (stereo not shown) [Mb3] | 8 (≈ 5.22 µM) | 
15 | CC1OC(OC2C(OC3C(OC4C(O)C(C(=O)O)OC(OC5CCC6(C)C(CCC7(C)C6CCC68OC(O)C9(C(O)CC76C)C(OC(=O)C=Cc6ccccc6)C(OC(=O)c6ccccc6)C(C)(C)CC98)C5(C)C)C4OC4OC(CO)C(O)C(O)C4O)OC(CO)C(O)C3O)OC(C)C(O)C2O)C(O)C(O)C1O (stereo not shown) [Mb4] | 15 (≈ 9.78 µM) | 
16 | CC=C(C)C(=O)OC1C(OC(=O)c2ccccc2)C(C)(C)CC2C13C(O)CC1(C)C4(C)CCC5C(C)(C)C(OC6OC(C(=O)O)C(O)C(OC7OC(CO)C(O)C(O)C7OC7OC(C)C(O)C(O)C7OC7OC(C)C(O)C(O)C7O)C6OC6OC(CO)C(O)C(O)C6O)CCC5(C)C4CCC21OC3O (stereo not shown) [Mb6] | 10 (≈ 6.73 µM) | 
17 | CC1O[C@@H](OC2[C@H](OC3[C@H](O[C@H]4C(O[C@@H]5OC(CO)[C@H](O)[C@@H](O)C5O)[C@H](O[C@H]5CC[C@@]6(C)C(CC[C@]7(C)C6CC[C@]68O[C@H](O)[C@]9(C6CC(C)(C)[C@@H](OC(=O)c6ccccc6)[C@@H]9OC(=O)C=Cc6ccccc6)[C@H](O)[C@H](O)[C@]87C)[C@@]5(C)CO)OC(C(=O)O)[C@H]4O)OC(CO)[C@H](O)[C@H]3O)OC(C)[C@H](O)[C@@H]2O)C(O)[C@@H](O)[C@H]1O (stereo partly shown) [Mb8] | 20 (≈ 12.8 µM) | 
18 | CC=C(C)C(=O)OC1C(OC(=O)c2ccccc2)C2(CO)C(CC1(C)C)C1=CCC3C4(C)CCC(OC5OC(C(=O)O)C(O)C(OC6OC(CO)C(O)C6O)C5OC5OC(CO)C(O)C(O)C5O)C(C)(C)C4CCC3(C)C1(C)C(O)C2O [Xanifolia Z4, 3-O-[β-D-galactopyranosyl(1→2)]-α-L-arabinofuranosyl(1→3)-β-D-glucuronopyranosyl-21-O-angeloyl, 22-O-benzoyl-3β, 15α, 16α, 21β, 22α, 28-hexahydroxyolean-12-ene] | 20 (≈ 17.2 µM) | 
19 | C/C=C(/C)C(=O)O[C@H]1[C@H](OC(=O)/C(C)=C/C)[C@@]2(CO)C(CC1(C)C)C1=CCC3[C@@]4(C)CC[C@H](O[C@@H]5OC(C(=O)O)[C@@H](O)C(O[C@@H]6OC[C@@H](O)C(O)C6O)C5O[C@@H]5OC(CO)[C@H](O)C(O)C5O)C(C)(C)C4CC[C@@]3(C)[C@]1(C)C[C@H]2O (stereo partly drawn) [Xanifolia Z12, 3-O-[β-D-galactopyranosyl(1→2)]-β-D-xylopyranosyl (1→3)-β-D-glucuronopyranosyl-21-O-angeloyl, 22-O-tigloyl-3β, 16α, 21β, 22α, 28-pentahydroxyolean-12-ene] |  | 16 (≈ 14.2 µM)
